Reference: paper PMC9851200, “Multiparameter phenotypic screening for endogenous TFEB and TFE3 translocation identifies novel chemical series modulating lysosome function” (Autophagy, 2022)

Legend:
Format in all cases: binding
[1] = target: kinases (KINOMEscan panel) (Homo sapiens, UniProt O95819); conditions: MAP4K4; NEW KINOMEscan
[2] = target: kinases (KINOMEscan panel) (Homo sapiens, UniProt P07949, M918T); conditions: NEW KINOMEscan
[3] = target: kinases (KINOMEscan panel) (Homo sapiens, UniProt P09619); conditions: NEW KINOMEscan
[4] = target: T1, kinases (KINOMEscan panel) (Homo sapiens, UniProt P54760); conditions: EPHB4; NEW KINOMEscan
T1 sequence (P54760 16-987): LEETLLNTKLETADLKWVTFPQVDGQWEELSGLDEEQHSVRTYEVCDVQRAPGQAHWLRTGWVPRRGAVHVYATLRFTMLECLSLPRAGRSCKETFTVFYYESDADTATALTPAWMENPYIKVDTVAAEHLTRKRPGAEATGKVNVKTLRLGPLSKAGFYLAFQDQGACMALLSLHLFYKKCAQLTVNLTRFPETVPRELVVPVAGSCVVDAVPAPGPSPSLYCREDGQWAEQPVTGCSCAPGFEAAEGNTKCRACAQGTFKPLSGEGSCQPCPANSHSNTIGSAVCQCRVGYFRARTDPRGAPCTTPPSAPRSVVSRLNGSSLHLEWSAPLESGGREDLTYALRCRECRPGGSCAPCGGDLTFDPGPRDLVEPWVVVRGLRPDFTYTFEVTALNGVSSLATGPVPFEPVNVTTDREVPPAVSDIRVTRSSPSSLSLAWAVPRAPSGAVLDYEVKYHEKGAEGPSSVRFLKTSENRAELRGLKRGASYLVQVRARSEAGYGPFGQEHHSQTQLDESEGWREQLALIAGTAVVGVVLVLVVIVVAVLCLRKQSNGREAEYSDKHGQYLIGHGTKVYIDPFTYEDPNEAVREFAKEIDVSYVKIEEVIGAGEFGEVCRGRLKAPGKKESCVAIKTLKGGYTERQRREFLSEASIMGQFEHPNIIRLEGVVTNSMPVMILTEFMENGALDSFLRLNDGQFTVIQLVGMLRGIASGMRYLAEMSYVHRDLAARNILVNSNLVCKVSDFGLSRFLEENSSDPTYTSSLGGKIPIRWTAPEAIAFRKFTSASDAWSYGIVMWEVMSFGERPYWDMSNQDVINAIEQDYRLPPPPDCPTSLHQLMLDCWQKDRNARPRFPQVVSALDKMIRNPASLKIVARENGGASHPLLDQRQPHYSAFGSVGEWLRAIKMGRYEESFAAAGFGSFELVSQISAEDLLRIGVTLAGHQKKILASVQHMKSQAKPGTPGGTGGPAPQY

[5] = target: T2, kinases (KINOMEscan panel) (Homo sapiens, UniProt Q8TF76); conditions: HASPIN; NEW KINOMEscan
T2 sequence (Q8TF76 1-798): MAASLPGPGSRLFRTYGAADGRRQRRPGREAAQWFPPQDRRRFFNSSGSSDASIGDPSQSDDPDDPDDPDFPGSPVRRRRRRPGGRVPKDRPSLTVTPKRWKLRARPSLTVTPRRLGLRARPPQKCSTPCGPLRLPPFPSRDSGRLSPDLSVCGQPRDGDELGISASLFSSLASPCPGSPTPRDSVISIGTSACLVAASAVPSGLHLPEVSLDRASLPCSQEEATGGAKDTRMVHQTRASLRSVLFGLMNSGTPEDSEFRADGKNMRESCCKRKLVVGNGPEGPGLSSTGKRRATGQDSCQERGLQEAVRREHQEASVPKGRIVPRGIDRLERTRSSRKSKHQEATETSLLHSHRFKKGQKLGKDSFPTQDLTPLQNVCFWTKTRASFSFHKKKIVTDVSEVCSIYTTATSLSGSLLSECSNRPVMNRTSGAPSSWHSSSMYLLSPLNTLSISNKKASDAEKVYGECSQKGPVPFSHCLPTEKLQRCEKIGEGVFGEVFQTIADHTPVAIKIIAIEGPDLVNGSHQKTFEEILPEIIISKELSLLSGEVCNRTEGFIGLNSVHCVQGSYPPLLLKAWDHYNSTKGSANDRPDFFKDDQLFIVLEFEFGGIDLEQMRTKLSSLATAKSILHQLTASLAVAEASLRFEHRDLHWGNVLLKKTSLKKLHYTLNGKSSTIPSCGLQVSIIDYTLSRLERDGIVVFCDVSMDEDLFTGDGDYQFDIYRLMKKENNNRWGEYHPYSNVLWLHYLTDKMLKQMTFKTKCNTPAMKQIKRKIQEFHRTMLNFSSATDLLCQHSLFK

[6] = target: kinases (KINOMEscan panel) (Homo sapiens, UniProt Q9BX84); conditions: TRPM6; NEW KINOMEscan
[7] = target: kinases (KINOMEscan panel) (Homo sapiens, UniProt Q9UIK4); conditions: kinase DAPK2; NEW KINOMEscan
Chain of kinases (KINOMEscan panel) (Homo sapiens, UniProt Q9UIK4) (Q9UIK4 whole entry): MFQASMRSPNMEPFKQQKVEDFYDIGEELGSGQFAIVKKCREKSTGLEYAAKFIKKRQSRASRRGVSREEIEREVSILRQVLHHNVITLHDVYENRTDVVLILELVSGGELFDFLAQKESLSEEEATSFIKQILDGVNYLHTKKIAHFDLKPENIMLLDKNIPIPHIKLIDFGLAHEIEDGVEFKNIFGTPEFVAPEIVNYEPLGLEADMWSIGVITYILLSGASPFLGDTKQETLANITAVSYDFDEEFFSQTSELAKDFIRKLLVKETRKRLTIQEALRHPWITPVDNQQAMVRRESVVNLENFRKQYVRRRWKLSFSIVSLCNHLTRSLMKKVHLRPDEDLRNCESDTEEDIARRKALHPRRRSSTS

Chain of kinases (KINOMEscan panel) (Homo sapiens, UniProt Q9BX84) (Q9BX84 whole entry): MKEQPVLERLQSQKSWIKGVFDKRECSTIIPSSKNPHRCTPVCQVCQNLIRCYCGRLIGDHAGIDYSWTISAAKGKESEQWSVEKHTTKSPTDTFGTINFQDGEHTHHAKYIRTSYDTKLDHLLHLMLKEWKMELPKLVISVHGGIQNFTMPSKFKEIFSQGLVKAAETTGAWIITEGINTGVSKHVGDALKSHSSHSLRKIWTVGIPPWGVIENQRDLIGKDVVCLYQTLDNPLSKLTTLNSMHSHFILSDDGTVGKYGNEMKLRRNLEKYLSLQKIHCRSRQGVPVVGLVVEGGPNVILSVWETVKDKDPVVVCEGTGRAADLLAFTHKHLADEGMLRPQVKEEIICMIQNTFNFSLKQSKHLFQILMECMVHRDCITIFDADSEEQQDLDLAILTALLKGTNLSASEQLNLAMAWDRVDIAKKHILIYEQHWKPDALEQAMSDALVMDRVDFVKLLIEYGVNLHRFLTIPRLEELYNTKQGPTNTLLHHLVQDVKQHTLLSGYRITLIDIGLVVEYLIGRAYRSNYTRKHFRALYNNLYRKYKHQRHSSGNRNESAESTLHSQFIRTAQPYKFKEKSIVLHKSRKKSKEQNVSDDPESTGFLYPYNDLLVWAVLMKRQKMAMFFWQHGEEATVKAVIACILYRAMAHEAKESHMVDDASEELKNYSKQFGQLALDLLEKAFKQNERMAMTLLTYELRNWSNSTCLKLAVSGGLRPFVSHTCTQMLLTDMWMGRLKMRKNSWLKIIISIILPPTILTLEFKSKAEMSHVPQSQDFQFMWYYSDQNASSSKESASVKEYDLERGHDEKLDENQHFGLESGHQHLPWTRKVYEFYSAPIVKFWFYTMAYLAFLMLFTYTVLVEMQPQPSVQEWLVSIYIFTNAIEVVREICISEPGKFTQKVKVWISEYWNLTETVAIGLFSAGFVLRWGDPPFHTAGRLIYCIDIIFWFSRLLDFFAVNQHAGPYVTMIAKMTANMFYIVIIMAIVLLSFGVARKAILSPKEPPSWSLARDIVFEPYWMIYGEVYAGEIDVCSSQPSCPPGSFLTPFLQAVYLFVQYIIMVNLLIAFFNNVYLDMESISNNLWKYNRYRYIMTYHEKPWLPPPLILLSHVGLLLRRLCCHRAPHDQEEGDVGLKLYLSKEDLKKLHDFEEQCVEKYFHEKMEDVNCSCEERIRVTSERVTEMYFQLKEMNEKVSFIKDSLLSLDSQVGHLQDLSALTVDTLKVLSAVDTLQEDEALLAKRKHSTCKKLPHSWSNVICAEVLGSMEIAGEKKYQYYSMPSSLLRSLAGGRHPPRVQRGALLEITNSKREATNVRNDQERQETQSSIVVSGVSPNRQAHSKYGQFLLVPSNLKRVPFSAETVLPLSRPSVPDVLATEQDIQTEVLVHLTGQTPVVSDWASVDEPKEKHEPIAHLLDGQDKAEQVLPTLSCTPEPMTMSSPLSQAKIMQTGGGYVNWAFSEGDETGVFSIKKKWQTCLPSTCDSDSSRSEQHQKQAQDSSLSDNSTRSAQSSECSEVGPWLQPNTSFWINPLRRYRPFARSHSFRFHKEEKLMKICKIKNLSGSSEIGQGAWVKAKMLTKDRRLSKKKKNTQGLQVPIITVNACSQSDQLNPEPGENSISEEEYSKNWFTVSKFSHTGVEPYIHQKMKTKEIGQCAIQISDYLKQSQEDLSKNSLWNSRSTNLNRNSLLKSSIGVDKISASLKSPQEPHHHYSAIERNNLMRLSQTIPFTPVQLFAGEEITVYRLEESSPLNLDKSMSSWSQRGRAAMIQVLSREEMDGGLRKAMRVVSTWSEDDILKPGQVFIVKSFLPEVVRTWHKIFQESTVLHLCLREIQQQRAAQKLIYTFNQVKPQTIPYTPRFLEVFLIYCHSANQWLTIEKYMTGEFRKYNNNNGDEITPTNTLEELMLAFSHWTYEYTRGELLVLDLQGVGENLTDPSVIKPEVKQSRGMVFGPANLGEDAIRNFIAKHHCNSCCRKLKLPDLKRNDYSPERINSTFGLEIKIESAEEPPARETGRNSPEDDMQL
Chain of kinases (KINOMEscan panel) (Homo sapiens, UniProt P07949, M918T) (P07949 29-1114 M918T): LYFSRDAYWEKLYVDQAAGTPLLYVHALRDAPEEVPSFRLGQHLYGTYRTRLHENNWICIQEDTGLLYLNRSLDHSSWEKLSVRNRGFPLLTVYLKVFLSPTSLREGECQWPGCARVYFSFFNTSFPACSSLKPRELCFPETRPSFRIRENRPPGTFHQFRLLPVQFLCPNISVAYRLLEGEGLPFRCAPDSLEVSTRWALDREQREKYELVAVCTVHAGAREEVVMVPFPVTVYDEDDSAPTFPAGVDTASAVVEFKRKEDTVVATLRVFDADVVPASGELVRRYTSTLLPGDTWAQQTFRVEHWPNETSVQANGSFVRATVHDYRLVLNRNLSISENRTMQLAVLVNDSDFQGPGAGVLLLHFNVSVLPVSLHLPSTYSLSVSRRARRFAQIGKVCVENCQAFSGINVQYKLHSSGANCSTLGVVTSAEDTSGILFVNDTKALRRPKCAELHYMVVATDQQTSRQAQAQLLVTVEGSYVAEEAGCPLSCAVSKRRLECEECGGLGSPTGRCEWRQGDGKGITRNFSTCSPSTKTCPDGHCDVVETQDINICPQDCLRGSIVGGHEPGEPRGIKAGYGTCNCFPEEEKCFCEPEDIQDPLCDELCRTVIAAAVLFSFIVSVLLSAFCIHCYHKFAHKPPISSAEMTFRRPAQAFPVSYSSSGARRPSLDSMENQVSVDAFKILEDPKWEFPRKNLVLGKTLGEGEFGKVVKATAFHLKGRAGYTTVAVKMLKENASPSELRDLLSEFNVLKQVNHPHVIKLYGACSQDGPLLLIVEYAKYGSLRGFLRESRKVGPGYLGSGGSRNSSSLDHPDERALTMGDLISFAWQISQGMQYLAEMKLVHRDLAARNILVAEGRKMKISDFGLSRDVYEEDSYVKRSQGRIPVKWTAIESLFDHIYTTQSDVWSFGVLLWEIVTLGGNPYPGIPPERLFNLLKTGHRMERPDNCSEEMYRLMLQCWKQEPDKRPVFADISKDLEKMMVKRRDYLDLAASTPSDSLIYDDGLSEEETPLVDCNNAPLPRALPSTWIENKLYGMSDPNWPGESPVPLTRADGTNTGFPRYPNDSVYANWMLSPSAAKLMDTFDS
Chain of kinases (KINOMEscan panel) (Homo sapiens, UniProt O95819) (O95819 whole entry): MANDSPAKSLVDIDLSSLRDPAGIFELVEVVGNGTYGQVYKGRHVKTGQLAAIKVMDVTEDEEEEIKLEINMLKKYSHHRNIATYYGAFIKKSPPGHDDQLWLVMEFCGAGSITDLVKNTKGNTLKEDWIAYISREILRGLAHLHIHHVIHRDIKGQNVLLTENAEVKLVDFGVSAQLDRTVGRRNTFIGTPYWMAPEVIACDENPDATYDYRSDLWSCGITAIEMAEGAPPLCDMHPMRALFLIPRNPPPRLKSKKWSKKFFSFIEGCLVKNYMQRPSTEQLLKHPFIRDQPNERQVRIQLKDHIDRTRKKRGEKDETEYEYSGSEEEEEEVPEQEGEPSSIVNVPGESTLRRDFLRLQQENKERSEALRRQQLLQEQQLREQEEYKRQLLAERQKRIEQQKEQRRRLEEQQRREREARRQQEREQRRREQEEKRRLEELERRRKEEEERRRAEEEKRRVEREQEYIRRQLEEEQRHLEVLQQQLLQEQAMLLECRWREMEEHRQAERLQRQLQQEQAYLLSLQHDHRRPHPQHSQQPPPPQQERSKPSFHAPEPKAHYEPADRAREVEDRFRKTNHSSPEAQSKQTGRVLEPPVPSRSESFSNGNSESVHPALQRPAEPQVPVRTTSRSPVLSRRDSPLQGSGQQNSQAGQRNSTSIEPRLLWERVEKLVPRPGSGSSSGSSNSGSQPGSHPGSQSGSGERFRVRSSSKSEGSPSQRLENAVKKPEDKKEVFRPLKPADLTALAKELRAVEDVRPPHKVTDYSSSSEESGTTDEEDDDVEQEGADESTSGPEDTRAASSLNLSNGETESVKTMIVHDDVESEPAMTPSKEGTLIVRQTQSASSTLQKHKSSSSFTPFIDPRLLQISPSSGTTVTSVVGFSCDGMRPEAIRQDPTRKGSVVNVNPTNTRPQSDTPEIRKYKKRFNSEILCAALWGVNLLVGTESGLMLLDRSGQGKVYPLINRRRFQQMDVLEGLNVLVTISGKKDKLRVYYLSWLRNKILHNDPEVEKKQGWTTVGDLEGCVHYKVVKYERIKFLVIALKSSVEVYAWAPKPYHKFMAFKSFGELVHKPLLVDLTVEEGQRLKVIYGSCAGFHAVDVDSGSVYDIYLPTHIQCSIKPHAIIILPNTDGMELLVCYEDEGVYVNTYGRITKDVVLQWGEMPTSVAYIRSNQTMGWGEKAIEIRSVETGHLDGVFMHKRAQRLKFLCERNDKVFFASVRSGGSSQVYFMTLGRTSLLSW

Row | Compound | KINOMEscan MAP4K4 [1] | KINOMEscan RET(M918T) [2] | KINOMEscan PDGFRB [3] | KINOMEscan EPHB4 [4] | KINOMEscan HASPIN [5] | KINOMEscan TRPM6 [6] | KINOMEscan DAPK2 [7]
1 | Cc1cccc(-c2nc(Nc3ccc4nn(C)cc4c3)c3ccccc3n2)n1 [NK167] | 1 | 0 | 19 | 0 | 4 | 0 | 0
2 | Cc1cccc(-c2nc(N(C)c3ccc4ncsc4c3)c3ccccc3n2)n1 [NK-161] | 0 | 15 | 21 | 0 | 7 | 0 | 0
